Assay results reported in patent publication US7601333B2, “Use of a tetrapeptide AcSDKP (SEQ ID No. 1) analog resistant to the angiotensin I converting enzyme for measuring glomerular filtration rate in a human or an animal and kit containing same” (Assistance Publique-Hopitaux de Paris, priority 2003, dated 2009).
Values joined by “and” are separate entries in the source; they are usually repeats but may differ in a detail not shown here. Equal values may be shown once. Read-outs that look alike come from different tables or passages of the source. Residues, ends and D or L forms follow the SMILES beside them.

Key:
[1] = Plasma and urine pharmacokinetics after I.V. bolus in rats; conditions: for % excreted - endog / CLR -endog: endogenous AcSDKP subtracted; for % excreted: urine
ACE (rat lung) = tested on: T1, ACE (rat lung); test: In vitro degradation in the presence of rat lung ACE; assay type: in vitro ADME; conditions: ground rat lung material (rat lung ACE), peptide 100 nM, ground rat lung material 0.1 mg/ml, pH 7.5, read-out: percentage of peptide assayed relative to the control; for remaining at 1 h, 100 nM: T60 min; for remaining at 2 h, 100 nM: T120 min; for remaining at 4 h, 100 nM: T240 min
T1 construct: incubated with ground rat lung material (at 0.1 mg/ml); from tissue; host or cells: rat lung (ground material)
Procedure: (§1) The peptides (100 nM) were incubated with ground rat lung material (at 0.1 mg/ml) or human converting enzyme (5 mU final concentration) in the presence or absence of captopril (10 μM final concentration) in 0.1 M Tris/HCl buffer+0.3 mM NaCl, pH=7.5. A control comprising only the peptides in the presence of 0.1 M Tris/HCl buffer+0.3 mM NaCl, pH=7.5, was carried out.
(§2) A methanol extraction was carried out in order to stop the reaction. At each time, the concentration of the nondegraded peptide was measured by enzyme immunoassay.
(§3) The results were expressed as percentage of peptide assayed relative to the control for each sample time.

rat lung ACE = biological target: T2, rat lung ACE (Rattus norvegicus, UniProt P47820); test: as above; assay type: in vitro ADME
T2 construct: incubated with ground rat lung material (at 0.1 mg/ml); from tissue; host or cells: rat lung (ground material)
T2 sequence (P47820 36-1313): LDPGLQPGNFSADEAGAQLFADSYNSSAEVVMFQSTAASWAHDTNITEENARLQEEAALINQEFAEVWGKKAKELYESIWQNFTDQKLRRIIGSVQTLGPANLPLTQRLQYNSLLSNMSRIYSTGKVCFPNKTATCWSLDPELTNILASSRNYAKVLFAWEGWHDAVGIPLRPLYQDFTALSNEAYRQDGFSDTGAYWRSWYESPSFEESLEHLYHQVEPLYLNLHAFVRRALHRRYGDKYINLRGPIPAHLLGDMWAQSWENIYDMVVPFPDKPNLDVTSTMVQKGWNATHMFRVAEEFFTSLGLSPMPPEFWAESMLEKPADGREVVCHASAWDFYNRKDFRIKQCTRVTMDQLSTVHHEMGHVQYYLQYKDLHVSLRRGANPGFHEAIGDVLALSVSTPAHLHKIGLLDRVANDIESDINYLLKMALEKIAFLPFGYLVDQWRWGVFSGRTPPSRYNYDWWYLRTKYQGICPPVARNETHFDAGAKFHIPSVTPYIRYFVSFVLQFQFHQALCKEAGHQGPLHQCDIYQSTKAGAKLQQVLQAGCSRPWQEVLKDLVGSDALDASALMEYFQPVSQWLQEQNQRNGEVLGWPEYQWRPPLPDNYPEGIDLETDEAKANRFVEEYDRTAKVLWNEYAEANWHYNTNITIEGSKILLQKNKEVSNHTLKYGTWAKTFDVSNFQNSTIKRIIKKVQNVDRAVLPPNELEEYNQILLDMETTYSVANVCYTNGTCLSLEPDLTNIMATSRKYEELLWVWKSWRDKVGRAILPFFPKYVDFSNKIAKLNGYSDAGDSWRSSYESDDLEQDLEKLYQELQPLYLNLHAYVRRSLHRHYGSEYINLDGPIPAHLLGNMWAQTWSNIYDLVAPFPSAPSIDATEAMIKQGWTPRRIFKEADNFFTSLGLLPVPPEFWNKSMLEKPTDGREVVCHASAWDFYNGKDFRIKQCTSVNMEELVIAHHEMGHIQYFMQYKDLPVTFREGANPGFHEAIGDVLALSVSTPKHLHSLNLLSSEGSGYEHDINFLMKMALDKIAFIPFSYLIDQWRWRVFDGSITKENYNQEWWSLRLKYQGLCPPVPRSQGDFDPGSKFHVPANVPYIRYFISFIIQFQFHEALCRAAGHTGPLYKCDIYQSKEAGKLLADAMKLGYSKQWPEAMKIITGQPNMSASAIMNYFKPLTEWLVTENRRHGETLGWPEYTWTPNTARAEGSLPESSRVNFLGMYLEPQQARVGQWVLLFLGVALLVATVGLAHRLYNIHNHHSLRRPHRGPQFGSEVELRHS
Procedure: as §1, §2, §3

[2] = Group 1, i.v. bolus, without captopril, mean
[3] = Group 1, i.v. bolus, without captopril, single rats
[4] = Group 2, i.v. bolus, with captopril, 2-4 h, single rats
[5] = Group 2, i.v. bolus, with captopril, mean
[6] = Group 2, i.v. bolus, with captopril, single rats
[7] = summarizing table, rats, i.v. bolus, with captopril
[8] = summarizing table, rats, i.v. bolus, without captopril
[9] = with captopril 10 μM, + captopril 10 μM

CC(=O)N[C@@H](CO)C(=O)N[C@@H](CC(=O)O)C(=O)N[C@@H](CCCCN)C(=O)N1CCC[C@H]1C(=O)O [AcSDKP, N-acetyl-Ser-Asp-Lys-Pro] (Ac-SDKP-OH; C-terminus assumed)
Q in urine ([1]; Group 1, i.v. bolus, without captopril, 0-2 h, single rats): 25.1 nmol and 0.0 nmol and 46.7 nmol and 0.1 nmol | Q in urine ([1]; Group 1, i.v. bolus, without captopril, 2-4 h, single rats): 7.1 nmol and 0.0 nmol and 15.7 nmol and 36.4 nmol | Q in urine ([1]; Group 1, i.v. bolus, without captopril, 4-5 h, single rats): 33.5 nmol and 51.3 nmol and 0.0 nmol and 14.6 nmol | Q in urine ([1]; Group 1, i.v. bolus, without captopril, 5-24 h, single rats): 9.9 nmol and 10.2 nmol and 0.0 nmol and 20.6 nmol and 78.5 nmol | Q in urine ([1]; Group 1, i.v. bolus, without captopril, 24-36 h, single rats): 4.1 nmol and 3.4 nmol and 15.5 nmol and 0.9 nmol | Q in urine ([1]; Group 1, i.v. bolus, without captopril, 36-48 h, single rats): 4.0 nmol and 1.7 nmol and 3.4 nmol and 2.0 nmol and 7.9 nmol | Concentration in plasma ([1]; Group 1, i.v. bolus, without captopril, 5 min, single rats): 2188 nM and 1759 nM and 1239 nM and 2100 nM and 1802 nM | Concentration in plasma ([1]; Group 1, i.v. bolus, without captopril, 10 min, single rats): 729 nM and 400 nM and 265 nM and 671 nM and 508 nM | Concentration in plasma ([1]; Group 1, i.v. bolus, without captopril, 15 min, single rats): 268 nM and 96 nM and 135 nM and 328 nM and 143 nM | Concentration in plasma ([1]; Group 1, i.v. bolus, without captopril, 30 min, single rats): 34 nM and 14 nM and 10 nM (2×) and 121 nM | Concentration in plasma ([1]; Group 1, i.v. bolus, without captopril, 60 min, single rats): 5 nM and 0.36 nM and 0.15 nM and 33 nM and 2 nM | Concentration in plasma ([1]; Group 1, i.v. bolus, without captopril, 120 min, single rats): ILQ (4×) and 2 nM | Concentration in plasma ([1]; Group 1, i.v. bolus, without captopril, 180 min, single rats): ILQ | Concentration in plasma ([1]; Group 1, i.v. bolus, without captopril, 240 min, single rats): ILQ | Concentration in plasma ([1]; Group 1, i.v. bolus, without captopril, 300 min, single rats): ILQ | % excreted - endog [1, 2]: 7.86% | CLR -endog [1, 2]: 11.21 mL/min/kg | % excreted - endog [1, 3]: 8.9% and 8.0% and 5.6% and 8.3% and 8.5% | CLR -endog [1, 3]: 8.6 mL/min/kg and 11.1 mL/min/kg and 11.5 mL/min/kg and 11.8 mL/min/kg and 13.0 mL/min/kg | AUC0-inf [1, 2]: 17393 nM·min | CLR [1, 2]: 14.52 mL/min/kg | VD [1, 2]: 1.389 L/kg | t½ [1, 2]: 6.8 min | AUC0-inf [1, 3]: 230401 nM·min and 16319 nM·min and 13026 nM·min and 18178 nM·min and 16223 nM·min | CLR [1, 3]: 10.7 mL/min/kg and 12.5 mL/min/kg and 20.3 mL/min/kg and 12.8 mL/min/kg and 16.4 mL/min/kg | Q in urine total [1, 3]: 83.7 nmol and 66.6 nmol and 81.3 nmol and 74.5 nmol and 86.5 nmol | VD [1, 3]: 0.894 L/kg and 1.07 L/kg and 1.034 L/kg and 2.6 L/kg and 1.346 L/kg | t½ [1, 3]: 6.4 min and 4.7 min and 4.4 min and 12.8 min and 5.9 min | % excreted [1, 3]: 1.1% and 9.4% and 10.5% and 8.9% and 10.4% | Q in urine ([1]; Group 2, i.v. bolus, with captopril, 0-2 h, single rats): 0.0 nmol | Concentration in urine [1, 4]: 126118 nM | Q in urine [1, 4]: 0.2 nmol and 744.4 nmol and 820.9 nmol and 0.0 nmol and 535.3 nmol | Q in urine ([1]; Group 2, i.v. bolus, with captopril, 4-6 h, single rats): 0.0 nmol | Q in urine ([1]; Group 2, i.v. bolus, with captopril, 6-24 h, single rats): 504.6 nmol and 49.0 nmol and 219.7 nmol and 649.1 nmol and 202.3 nmol | Q in urine ([1]; Group 2, i.v. bolus, with captopril, 24-30 h, single rats): 1.6 nmol and 9.6 nmol and 0.0 nmol (3×) | Q in urine ([1]; Group 2, i.v. bolus, with captopril, 30-48 h, single rats): 8.0 nmol and 2.5 nmol and 10.6 nmol (2×) and 0.4 nmol | Concentration in plasma ([1]; Group 2, i.v. bolus, with captopril, 5 min, single rats): 6707 nM and 5413 nM and 5511 nM and 5293 nM and 5393 nM | Concentration in plasma ([1]; Group 2, i.v. bolus, with captopril, 10 min, single rats): 5920 nM and 4813 nM and 4288 nM and 5439 nM and 4445 nM | Concentration in plasma ([1]; Group 2, i.v. bolus, with captopril, 15 min, single rats): 5571 nM and 4016 nM and 3399 nM and 3876 nM and 3343 nM | Concentration in plasma ([1]; Group 2, i.v. bolus, with captopril, 30 min, mean): 2457 nM | Concentration in plasma ([1]; Group 2, i.v. bolus, with captopril, 30 min, single rats): 2173 nM | Concentration in plasma ([1]; Group 2, i.v. bolus, with captopril, 60 min, single rats): 1759 nM and 735 nM and 848 nM and 1069 nM and 590 nM | Concentration in plasma ([1]; Group 2, i.v. bolus, with captopril, 120 min, single rats): 501 nM and 151 nM and 145 nM and 197 nM and 97 nM | Concentration in plasma ([1]; Group 2, i.v. bolus, with captopril, 180 min, single rats): 159 nM and 32 nM and 39 nM and 48 nM and 21 nM | Concentration in plasma ([1]; Group 2, i.v. bolus, with captopril, 240 min, single rats): 52 nM and 10 nM and 18 nM and 23 nM and 7 nM | Concentration in plasma ([1]; Group 2, i.v. bolus, with captopril, 300 min, single rats): 26 nM and 9 nM and 6 nM and 11 nM and 4 nM | % excreted - endog [1, 5]: 97% | CLR -endog [1, 5]: 11.67 mL/min/kg | % excreted - endog [1, 6]: 75.3% and 85.1% and 139.3% and 90.2% and 95.1% | CLR -endog [1, 6]: 5.2 mL/min/kg and 13.2 mL/min/kg and 16.4 mL/min/kg and 10.1 mL/min/kg and 13.5 mL/min/kg | AUC0-INF [1, 5]: 224742 nM·min | CLR [1, 5]: 11.94 mL/min/kg | Vd [1, 5]: 0.515 L/kg | t½ [1, 5]: 30.7 min | AUC0-INF [1, 6]: 341133 nM·min and 196456 nM·min and 200683 nM·min and 217932 nM·min and 167504 nM·min | CLR [1, 6]: 5.39 mL/min/kg and 13.59 mL/min/kg and 16.71 mL/min/kg and 10.09 mL/min/kg and 13.91 mL/min/kg | Q in urine total [1, 6]: 514.5 nmol and 805.5 nmol and 1051.2 nmol and 649.5 nmol and 748.3 nmol | Vd [1, 6]: 0.653 L/kg and 0.499 L/kg and 0.505 L/kg and 0.567 L/kg | t½ [1, 6]: 35.5 min and 29.2 min and 29.5 min and 31.4 min and 28.1 min | % excreted [1, 6]: 78.2% and 87.7% and 142.2% and 90.4% and 97.9% | degradation in vivo ([1]; rats, in the absence of captopril): rapidly degraded in vivo | Renal clearance [1, 7]: 11.7 mL/min/kg | T ½ life [1, 7]: 30.7 min | Total clearance [1, 7]: 11.9 mL/min/kg | T ½ life [1, 8]: 6.8 min | Total clearance [1, 8]: 144.4 mL/min/kg | remaining at 1 h, 100 nM (ACE (rat lung); [9]): 111% | remaining at 2 h, 100 nM (ACE (rat lung); [9]): 75% | remaining at 4 h, 100 nM (ACE (rat lung); [9]): 89% | remaining at 0.5 h, 100 nM (ACE (rat lung); T30 min, without captopril): 28% | remaining at 1 h, 100 nM (ACE (rat lung); without captopril): 9% | remaining at 2 h, 100 nM (ACE (rat lung); without captopril): 5% | remaining at 4 h, 100 nM (ACE (rat lung); without captopril): 5% | degradation by rat ACE (rat lung ACE; in vitro): degraded | percentage of peptide assayed relative to the control (rat lung ACE; peptide 100 nM, ground rat lung material 0.1 mg/ml, pH 7.5, T30 min, + captopril 10 μM): 129%
